Measurements reported in ChEMBL document CHEMBL1151242, “A new antifungal metabolite from Penicillium expansum” (2004).

The molecules below were run on Lasiodiplodia theobromae (assay: Antifungal activity against Lasiodiplodia theobromae OCS71 assessed as inhibition of mycelial growth at 100 ug/ml after 4 days by fungicide disk assay). Conditions: 96 h.
Type: functional
`COc1cc(O)c(C)c2c1[C@@H](OC)O[C@@H](C)C2` was tested, and the inhibition at 100 µg/mL was 76%.
`COc1cc(O)c(C)c2c1CO[C@@H](C)C2` showed an inhibition at 100 µg/mL of less than 10%.
With `COC1=CC(=O)C(C)=C2C[C@H](C)OC=C12` the inhibition at 100 µg/mL was 69%.
`CCOC1O[C@@H](C)Cc2c(C)c(O)cc(OC)c21` (some centres undefined) showed an inhibition at 100 µg/mL of 74%.
